The values below come from US6214836A, “Water soluble analogues of 20(S)-camptothecin” (Dr. Reddy's Research Foundation, priority 1996, dated 2001).

pIC50: −log10 of the molar value. Where two headings read alike, the source gives them in different places.

Data set [1] relates to Human Serum Albumin (HSA). The conditions noted are these: in the presence of HSA at 37° C.; vs 20(S) camptothecin and 9-aminocamptothecin; cited from earlier work.
The subject of data set [2] is NCI's 60 human tumor cell line. The experiment in a line: NCI 60 human tumor cell line assay (mean, Table 1). Format: cell-based. The conditions noted are these: read-out: IC 50 (mean value of the minimum drug concentration required to produce 50% cell growth inhibition (GI50)). On the procedure: (§1) Inoculates were allowed a preincubation period of 24 h at 37° C. for stabilization. […] Readings are transferred to a microcomputer and fmal reports are generated using especially developed software.
^a IC 50 = the mean value of the minimum drug concentration (μm) of
NCI's 60 human tumor cell line assay.

The conditions of data set [3]: vs 20(RS)-camptothecin of the formula 7; cited from earlier work.
In the next data set the test system is 786-O. The experiment in a line: 50% growth inhibition, RENAL panel. Format: cell-based. The conditions noted are these: Homo sapiens, 786-0, read-out: 50% Growth Inhibition (GI 50), 48 h. How it is done: as §1
The next data set has as its system CAKI-1. Briefly: 50% growth inhibition, RENAL panel. In kind it is cell-based. The conditions noted are these: Homo sapiens, read-out: 50% Growth Inhibition (GI 50); CAKI-1, renal; 48 h. How it is done: as §1
The next data set concerns ACHN. The experiment in a line: 50% growth inhibition, RENAL panel. In kind it is cell-based. To be noted: Homo sapiens, read-out: 50% Growth Inhibition (GI 50), 48 h. On the procedure: as §1
The test system of the next data set is MOLT-4. The experiment in a line: 50% growth inhibition, […] panel. Format: cell-based. The conditions noted are these: Homo sapiens, read-out: 50% Growth Inhibition (GI 50); MOLT-4, leukemia; 48 h. How it is done:
as §1

The subject of another data set is SR. The experiment in a line: 50% growth inhibition, […] panel. The conditions noted are these: Homo sapiens, read-out: 50% Growth Inhibition (GI 50), leukemia, 48 h. In kind it is cell-based. On the procedure:
as §1

Another data set has as its system CCRF-CEM. The experiment in a line: 50% growth inhibition, […] panel. In kind it is cell-based. To be noted: Homo sapiens, read-out: 50% Growth Inhibition (GI 50), leukemia, 48 h. How it is done:
as §1

Another data set deals with HCT 116. The experiment in a line: 50% growth inhibition, COLON panel. In kind it is cell-based. The conditions noted are these: Homo sapiens, read-out: 50% Growth Inhibition (GI 50); HCT 116, colon; 48 h. How it is done:
as §1

The subject of another data set is SW 620. Briefly: 50% growth inhibition, COLON panel. Format: cell-based. To be noted: Homo sapiens, read-out: 50% Growth Inhibition (GI 50); SW 620, colon; 48 h. On the procedure: as §1
In the next data set the test system is SF-539. Briefly: 50% growth inhibition, CNS panel. Format: cell-based. The conditions noted are these: Homo sapiens, read-out: 50% Growth Inhibition (GI 50); SF-539, CNS; 48 h. How it is done: as §1
For a further data set, the system named is SNB-19. Briefly: 50% growth inhibition, CNS panel. The conditions noted are these: Homo sapiens, read-out: 50% Growth Inhibition (GI 50); SNB-19, CNS; 48 h. In kind it is cell-based. How it is done: as §1
The subject of a further data set is SF-268. Briefly: 50% growth inhibition, CNS panel. In kind it is cell-based. The conditions noted are these: Homo sapiens, SF-268, 48 h, read-out: 50% Growth Inhibition (GI 50). How it is done: as §1
The next data set deals with HOP 62. The experiment in a line: 50% growth inhibition, NSLC panel. In kind it is cell-based. To be noted: Homo sapiens, read-out: 50% Growth Inhibition (GI 50); HOP 62, NSLC; 48 h. How it is done: as §1
A further data set deals with H 522. Briefly: 50% growth inhibition, NSLC panel. To be noted: Homo sapiens, NCI-H522, read-out: 50% Growth Inhibition (GI 50); H 522, NSLC; 48 h. Format: cell-based. On the procedure: as §1
A further data set deals with H 460. Briefly: 50% growth inhibition, NSLC panel. In kind it is cell-based. To be noted: Homo sapiens, NCI-H460, read-out: 50% Growth Inhibition (GI 50); H 460, NSLC; 48 h. How it is done: as §1
A further data set concerns MCF-7. Briefly: 50% growth inhibition, BREAST panel. In kind it is cell-based. The conditions noted are these: Homo sapiens, MCF7, read-out: 50% Growth Inhibition (GI 50); MCF-7, breast; 48 h. How it is done: as §1
A further data set relates to MCF7/ADR. The experiment in a line: 50% growth inhibition, BREAST panel. The conditions noted are these: Homo sapiens, NCI/ADR-RES, read-out: 50% Growth Inhibition (GI 50), 48 h. In kind it is cell-based. How it is done:
as §1

Another data set relates to T 47D. Briefly: 50% growth inhibition, BREAST panel. In kind it is cell-based. The conditions noted are these: Homo sapiens, T47D, read-out: 50% Growth Inhibition (GI 50), 48 h. How it is done: as §1
The subject of the next data set is topoisomerase I. The conditions noted are these: cited from earlier work.
The next data set has as its system humans. To be noted: cited from earlier work.
For another data set, the system named is HL 60. The experiment in a line: 50% growth inhibition, […] panel. In kind it is cell-based. The conditions noted are these: Homo sapiens, read-out: 50% Growth Inhibition (GI 50); HL 60, leukemia; 48 h. How it is done:
as §1

A further data set relates to HT 29. Briefly: 50% growth inhibition, COLON panel. To be noted: Homo sapiens, read-out: 50% Growth Inhibition (GI 50); HT 29, colon; 48 h. Format: cell-based. How it is done: as §1
In a further data set the test system is SF 295. Briefly: 50% growth inhibition, CNS panel. Format: cell-based. To be noted: Homo sapiens, read-out: 50% Growth Inhibition (GI 50); SF 295, CNS; 48 h. On the procedure:
as §1

The subject of a further data set is H 23. Briefly: 50% growth inhibition, NSLC panel. To be noted: Homo sapiens, NCI-H23, read-out: 50% Growth Inhibition (GI 50); H 23, NSLC; 48 h. In kind it is cell-based. How it is done: as §1
The next data set has as its system LOX IMVI. Briefly: 50% growth inhibition, MELANOMA panel. In kind it is cell-based. To be noted: Homo sapiens, read-out: 50% Growth Inhibition (GI 50), 48 h. On the procedure:
as §1

The test system of a further data set is UACC 62. The experiment in a line: 50% growth inhibition, MELANOMA panel. In kind it is cell-based. To be noted: Homo sapiens, read-out: 50% Growth Inhibition (GI 50); UACC 62, melanoma; 48 h. On the procedure: as §1
Another data set has as its system M 14. Briefly: 50% growth inhibition, MELANOMA panel. Format: cell-based. The conditions noted are these: Homo sapiens, M14, read-out: 50% Growth Inhibition (GI 50); M 14, melanoma; 48 h. How it is done:
as §1

Take `CCc1c2c(nc3ccc(O)cc13)-c1cc3c(c(=O)n1C2)COC(=O)[C@]3(O)CC` [SN-38, 7-ethyl-10-hydroxycamptothecin]: in data set [1], the “percentage (%) of lactone form at equilibrium (in words)” value (from here on “percentage (%) of lactone form”) is listed as “higher percentage (%) of lactone form at equilibrium”.

For `CC[C@@]1(O)C(=O)OCc2c1cc1n(c2=O)Cc2cc3c(CN(C)C)c(O)ccc3nc2-1` [Topotecan, topotecan], the “percentage (%) of lactone form” value in [1] is recorded as “higher percentage (%) of lactone form at equilibrium”.

Take `CC[C@@]1(O)C(=O)OCc2c1cc1n(c2=O)C(CC(=O)OC)c2cc3c([N+](=O)[O-])cccc3nc2-1` (stereo partly drawn) [Example 5, 9-Nitro-5-carbomethoxymethylcamptothecin]: in [2] (Homo sapiens, 48 h), the pIC50 was 4.80.

As to `CC[C@@]1(O)C(=O)OCc2c1cc1n(c2=O)C(CC(=O)OC)c2cc3ccccc3nc2-1` (stereo partly drawn) [Example 1, 5-Carbomethoxymethylcamptothecin], in data set [2] (Homo sapiens, 48 h), the pIC50 is 4.79.

With `CCc1c2c(nc3ccc(OC)cc13)-c1cc3c(c(=O)n1C2)COC(=O)[C@]3(N)CC` [formula 6], the “in vivo antitumor activity (in words)” value in data set [3] is recorded as “increased in vivo antitumor activity than 20(RS)-camptothecin”.

`CC[C@@]1(O)C(=O)OCc2c1cc1n(c2=O)C(CC(C)=O)c2cc3ccccc3nc2-1` (stereo partly drawn) [Example 2, 5-(2'-oxopropyl)camptothecin]: the GI50 with 786-O is 2950 nM; with CAKI-1 it was 2630 nM; in the data set on ACHN, 2880 nM; in the data set with MOLT-4 it was 770 nM; in the data set with SR it was 180 nM; in the data set with CCRF-CEM, 380 nM. The GI50 with HCT 116 came out at 5620 nM; in the data set with SW 620 it was 6020 nM; in the data set with SF-539, 3890 nM; in the data set on SNB-19 it was 6450 nM; in the data set with SF-268, 4260 nM; in the data set on HOP 62, 4460 nM. Besides, the GI50 in the data set with H 522 worked out at 3980 nM; with H 460 it was 1120 nM; with MCF-7, 3630 nM; in the data set with MCF7/ADR it was 1860 nM; with T 47D, 2630 nM. Further, in data set [2] (Homo sapiens, 48 h), the pIC50 is 5.08.

Consider `C=C1C(=O)OCc2c1cc1n(c2=O)Cc2c-1nc1ccc(O)cc1c2CC` [formula 8], for which the “topoisomerase I inhibition (in words)” value with topoisomerase I is “potent camptothecin like inhibition of topoisomerase I activity”.

In the case of `CCc1c2c(nc3ccc(OC(=O)N4CCC(N5CCCCC5)CC4)cc13)-c1cc3c(c(=O)n1C2)COC(=O)[C@]3(O)CC` [CPT-11], in data set [1], the “percentage (%) of lactone form” value is recorded as “higher percentage (%) of lactone form at equilibrium”.

As to `CC[C@@]1(O)C(=O)OCc2c1cc1n(c2=O)C(CC(=O)OC)c2cc3c(OC)cccc3nc2-1` (stereo partly drawn) [Example 10, 9-methoxy-5-carbomethoxymethylcamptothecin], the pIC50 in data set [2] (mean over NCI's 60 human tumor cell lines, 48 h incubation) is 4.79.

Consider `CC[C@@]1(O)C(=O)OCc2c1cc1n(c2=O)C(CC(=O)OC)c2cc3cc(O)ccc3nc2-1` (stereo partly drawn) [Example 3, 10-hydroxy-5-carbomethoxymethylcamptothecin], for which, in [2] (Homo sapiens, 48 h), the pIC50 was 5.31.

As for `CC[C@@]1(O)C(=O)OCc2c1cc1n(c2=O)Cc2cc3ccccc3nc2-1` [20(S)-Camptothecin], in the data set on topoisomerase I, the “topoisomerase I inhibition (in words)” value is given as “inhibitor of topoisomerise I”. Besides, in the data set on humans, the “toxicity (in words)” value is “high toxicity problems”. Also, the “side effects on humans (in words)” value in the data set on humans (humans) is on record as “unacceptable side effects on humans”.

For the compound `CC[C@@]1(O)C(=O)OCc2c1cc1n(c2=O)C(CC(C)=O)c2cc3c([N+](=O)[O-])cccc3nc2-1` (stereo partly drawn) [Example 4, 9-nitro-5-(2'-oxopropyl)camptothecin], the GI50 came out at 300 nM in the data set with 786-O; 210 nM in the data set on CAKI-1; 210 nM in the data set on ACHN; 20 nM with SR; 90 nM in the data set with CCRF-CEM; 230 nM in the data set with HL 60. Further, the GI50 amounted to 570 nM with HCT 116; 1170 nM with HT 29; 70 nM in the data set on SW 620; 260 nM in the data set on SF-539; 190 nM in the data set with SF 295; 260 nM in the data set with HOP 62. Also, the GI50 was 100 nM in the data set with H 460; 240 nM with H 23; 380 nM with LOX IMVI; 330 nM in the data set with UACC 62; 300 nM in the data set on M 14. Besides, the pIC50 in [2] (Homo sapiens, 48 h) was 6.00.
